The text below walks through data of patent EP4745118A1, “HYDROXAMIC ACID COMPOUND OR PHARMACEUTICALLY ACCEPTABLE SALT THEREOF, AND USE THEREOF AND PREPARATION METHOD THEREFOR” (priority 2023, dated 2025).

Values after ≈ are worked out from the molar mass of the structure shown. Read-outs that look alike come from different tables or passages of the source.

Assay type in all cases: cell-based
The test system of experiment [1] is Vero cells. Kind of experiment: Vero cytotoxicity (CCK-8). As for the experimental part: All liquid was transferred to a 15 mL centrifuge tube and centrifuged at 800 rpm for 5 min. […] A cell counter was used to measure cell density. Cells were inoculated at 100 µL and a density of 3 × 10^5/mL into a 96-well plate, with 6 replicates per group, and incubated at 37°C for 4 hours to allow cells to adhere to the wall. The compound was twofold continuously diluted with PBS, and 10 µL of the compound with the corresponding concentration was added to the 96-well plate, and shaken and mixed well on a shaker, and then incubated at 37°C for 24 hours. 10 µL of CCK-8 reagent was added to the 96-well plate, mixed thoroughly on a shaker, and incubated at 37°C for 2 hours. A microplate reader was used to measure the absorbance at 450 nm wavelength, and the inhibition rate of the compound on Vero cells was calculated. Table 5 Vero cytotoxicity of 4 optical isomers and control drug

For experiment [2], the system named is Klebsiella pneumoniae. Nature of the experiment: In vitro antibacterial activity, agar dilution method (MIC). As to conditions: agar dilution, 35°C. As for the experimental part:
(§1) According to the relevant operating procedures of the Clinical Laboratory Standards Institute (CLSI) in the United States, an antimicrobial susceptibility testing was conducted using the agar dilution method. […]. The agar was allowed to solidify and set aside for later use.
(§2) The test bacteria were propagated in broth and adjusted to a turbidity of 0.5 McFarland (approximately 1-2 × 10^8 CFU/mL) using a turbidimeter before inoculation. The 0.5 McFarland bacterial solution was then diluted 10-fold in broth (approximately 1-2 × 10^7 CFU/mL). A multipoint inoculator was used to inoculate the above bacterial solution onto a series of plates containing different concentrations of drugs (with an inoculation amount of approximately 10^4 CFU per inoculation site). After incubation at a constant temperature of 35°C for 18 hours, results were observed. The minimum concentration of drugs contained in sterile growth plates was determined as the Minimal Inhibitory Concentration (MIC).
A general note: In agar dilution the substance is mixed into plates at graded concentrations.

The test system of experiment [3] is Serratia marcescens. The experiment is described as above. How it is done: as §1, §2
Experiment [4] relates to Escherichia coli. The experiment is described as above. The following applies: agar dilution, 35°C. How it is done:
as §1, §2

Experiment [5] deals with Enterobacter aerogenes. The description is as above. As for the experimental part:
as §1, §2

The subject of experiment [6] is Pantoea agglomerans. The description is as above. As for the experimental part:
as §1, §2

In experiment [7] the test system is Proteus vulgaris. Described as above. As for the experimental part: as §1, §2
Experiment [8] concerns Proteus mirabilis. Described as above. As for the experimental part: as §1, §2
The test system of experiment [9] is Pseudomonas aeruginosa. The description is as above. How it is done: as §1, §2
Experiment [10] has as its system Citrobacter freundii. Described as above. As for the experimental part: as §1, §2
For experiment [11], the system named is Shigella flexneri. Described as above. As to conditions: 18 hours. As for the experimental part: According to the relevant operating procedures of the Clinical Laboratory Standards Institute (CLSI) in the United States, an antimicrobial susceptibility testing was conducted using the agar dilution method. A 1920 µg/mL stock solution was serially diluted twofold with sterile water to obtain dilutions of 960, 480, 240, 120, 60, 30, 15, 7.5, 3.75, 1.88, 0.94, 0.47 µg/mL, and 1 mL of the dilution was taken respectively from the dilutions with different concentrations and added to a Petri dish, to which 14 mL of melted MH agar medium was added and mixed thoroughly, and the final concentration of the drug in the petri dish is 128, 64, 32, 16, 8, 4, 2, 1, 0.5, 0.25, 0.12, 0.06, and 0.03 µ g/mL, respectively. The agar was allowed to solidify and set aside for later use.
as §2

As usually defined, the IC50 is the concentration at which inhibition is half-maximal. What is called MIC is the lowest concentration that inhibits growth of the organism. On to `COCC1CC1C#CC#Cc1ccc(C(=O)NC(C(=O)NO)C(C)(C)N)cc1` (mixture of isomers) [Ia/Ib racemate], for which the IC50 in experiment [1] (Vero cells, 24 hours incubation, CCK-8, read-out: IC50) is greater than 128 µM. Besides, the MIC is 0.5 µg/mL in [2] (Klebsiella pneumoniae 09-20 (mcr-1), 18 hours); 1 µg/mL in [2] (Klebsiella pneumoniae 17-R27 (CRE), 18 hours); 0.5 µg/mL in [2] (Klebsiella pneumoniae 18-8 (ESBLs-producing), 18 hours); 2 µg/mL in experiment [2] (Klebsiella pneumoniae ATCC 700603 (ESBLs-producing), 18 hours); 2 µg/mL in experiment [2] (Klebsiella pneumoniae ATCC BAA-2146 (CRE, NDM-1-producing), 18 hours); 0.25 µg/mL in experiment [3] (Serratia marcescens ATCC 21074, agar dilution, 35°C, 18 hours). The MIC in experiment [4] (Escherichia coli 13-43 (mcr-1), 18 hours) is given as 0.12 µg/mL; in [4] (Escherichia coli 17-R28 (CRE, NDM-1-producing), 18 hours), 0.12 µg/mL; in [4] (Escherichia coli ATCC 2469 (CRE, NDM-1-producing), 18 hours), 0.5 µg/mL; in [4] (Escherichia coli ATCC 35218 (ESBLs-producing), 18 hours) it was 0.25 µg/mL; in experiment [5] (Enterobacter aerogenes ATCC 13048, agar dilution, 35°C, 18 hours) it was 1 µg/mL; in experiment [6] (Pantoea agglomerans ATCC 27993, agar dilution, 35°C, 18 hours) it was 1 µg/mL. Also, the MIC in experiment [7] (Proteus vulgaris ATCC 29905, agar dilution, 35°C, 18 hours) stood at 0.25 µg/mL; in [8] (Proteus mirabilis ATCC 49565, agar dilution, 35°C, 18 hours) it was 1 µg/mL; in experiment [9] (Pseudomonas aeruginosa PAO1, agar dilution, 35°C, 18 hours) it was 1 µg/mL; in experiment [10] (Citrobacter freundii ATCC 43864, agar dilution, 35°C, 18 hours), 0.25 µg/mL; in experiment [11] (Shigella flexneri ATCC 12022, 35°C), 0.12 µg/mL.
`CC(C)(N)[C@H](NC(=O)c1ccc(C#CC#C[C@@H]2C[C@H]2CO)cc1)C(=O)NO` [ACHN-975] registered an IC50 in experiment [1] (Chlorocebus sabaeus, Vero, 24 h) greater than 128 µM. Further, the MIC in [2] (Klebsiella pneumoniae, 18 h, Klebsiella pneumoniae 09-20 (mcr-1)) came to 1 µg/mL (≈ 2.71 µM); in experiment [2] (Klebsiella pneumoniae, 18 h, Klebsiella pneumoniae 17-R27 (CRE)) it was 2 µg/mL (≈ 5.41 µM); in [2] (Klebsiella pneumoniae, 18 h, Klebsiella pneumoniae 18-8 (ESBLs-producing), 18 hours, read-out: MIC), 1 µg/mL (≈ 2.71 µM); in experiment [2] (Klebsiella pneumoniae, ATCC700603, 18 h, Klebsiella pneumoniae ATCC 700603 (ESBLs-producing), 18 hours, read-out: MIC) it was 4 µg/mL (≈ 10.8 µM); in [2] (Klebsiella pneumoniae, ATCCBAA2146, 18 h, Klebsiella pneumoniae ATCC BAA-2146 (CRE, NDM-1-producing), 18 hours) it was 4 µg/mL (≈ 10.8 µM); in experiment [3] (Serratia marcescens, ATCC21074, 18 h) it was 0.25 µg/mL (≈ 0.677 µM). In addition, the MIC was 0.5 µg/mL (≈ 1.35 µM) in experiment [4] (Escherichia coli, 18 h, Escherichia coli 13-43 (mcr-1)); 0.5 µg/mL (≈ 1.35 µM) in experiment [4] (Escherichia coli, 18 h, Escherichia coli 17-R28 (CRE, NDM-1-producing)); 0.5 µg/mL (≈ 1.35 µM) in experiment [4] (Escherichia coli, ATCC2469, 18 h, Escherichia coli ATCC 2469 (CRE, NDM-1-producing), 18 hours); 0.5 µg/mL (≈ 1.35 µM) in [4] (Escherichia coli, ATCC35218, 18 h, Escherichia coli ATCC 35218 (ESBLs-producing), 18 hours, read-out: MIC); 1 µg/mL (≈ 2.71 µM) in [5] (Klebsiella aerogenes, ATCC13048, 18 h); 4 µg/mL (≈ 10.8 µM) in experiment [6] (Pantoea agglomerans, ATCC27993, 18 h). The MIC in experiment [7] (Proteus vulgaris, ATCC29905, 18 h) was determined as 0.06 µg/mL (≈ 0.162 µM); in [8] (Proteus mirabilis, ATCC49565, 18 h) it was 2 µg/mL (≈ 5.41 µM); in [9] (Pseudomonas aeruginosa, PAO1, 18 h), 0.25 µg/mL (≈ 0.677 µM); in experiment [10] (Citrobacter freundii, ATCC43864, 18 h), 0.5 µg/mL (≈ 1.35 µM); in experiment [11] (ATCC12022, Shigella flexneri ATCC 12022, 35°C, read-out: MIC), 0.12 µg/mL (≈ 0.325 µM).
